Results from PubChem BioAssay AID248 (DTP/NCI, 2004).
Values joined by “and” are separate entries in the source; they are usually repeats but may differ in a detail not shown here. Equal values may be shown once. Toxic doses and inconclusive results are not listed. Cut-off read from the data, not from the text of the source: active = T/C of 150% or more; inactive = T/C below 125%.

Tested on: L1210 leukemia ip in BDF1 mice, survival T/C
Test: NCI In Vivo Anticancer Drug Screen. Data for tumor model L1210 Leukemia (intraperitoneal) in B6D2F1 (BDF1) mice
Details: higher = longer survival
Outline: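 Ratio derived from survival: compound-dosed mice over vehicle-dosed mice, all bearing a transplantable tumor.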

[1] = endpoint: mean survival time, dose: 50.0 mg/kg/injection, schedule: Q01DX001 (ip), vehicle: carboxymethylcellulose (CMC)
[2] = endpoint: mean survival time, dose: 100.0 mg/kg/injection, schedule: Q01DX001 (ip), vehicle: carboxymethylcellulose (CMC)
[3] = endpoint: mean survival time, dose: 200.0 mg/kg/injection, schedule: Q01DX001 (ip), vehicle: carboxymethylcellulose (CMC)
[4] = endpoint: mean survival time, dose: 400.0 mg/kg/injection, schedule: Q01DX001 (ip), vehicle: carboxymethylcellulose (CMC)
[5] = endpoint: mean survival time, dose: 25.0 mg/kg/injection, schedule: Q01DX009 (ip), vehicle: saline with Tween-80
[6] = endpoint: mean survival time, dose: 25.0 mg/kg/injection, schedule: Q04DX003 (ip), vehicle: saline
[7] = endpoint: mean survival time, dose: 100.0 mg/kg/injection, schedule: Q01DX009 (ip), vehicle: saline with Tween-80
[8] = endpoint: mean survival time, dose: 200.0 mg/kg/injection, schedule: Q01DX009 (ip), vehicle: saline with Tween-80
[9] = endpoint: mean survival time, dose: 100.0 mg/kg/injection, schedule: Q04DX003 (ip), vehicle: saline
[10] = endpoint: mean survival time, dose: 100.0 mg/kg/injection, schedule: Q01DX009 (ip), vehicle: saline
[11] = endpoint: mean survival time, dose: 200.0 mg/kg/injection, schedule: Q01DX009 (ip), vehicle: saline
[12] = endpoint: mean survival time, dose: 200.0 mg/kg/injection, schedule: Q04DX003 (ip), vehicle: saline
[13] = endpoint: mean survival time, dose: 100.0 mg/kg/injection, schedule: Q04DX002 (ip), vehicle: saline with Tween-80
[14] = endpoint: mean survival time, dose: 200.0 mg/kg/injection, schedule: Q04DX002 (ip), vehicle: saline with Tween-80
[15] = endpoint: mean survival time, dose: 400.0 mg/kg/injection, schedule: Q04DX003 (ip), vehicle: saline
[16] = endpoint: mean survival time, dose: 100.0 mg/kg/injection, schedule: Q04DX003 (ip), vehicle: saline with Tween-80
[17] = endpoint: mean survival time, dose: 200.0 mg/kg/injection, schedule: Q04DX003 (ip), vehicle: saline with Tween-80
[18] = endpoint: mean survival time, dose: 400.0 mg/kg/injection, schedule: Q04DX003 (ip), vehicle: saline with Tween-80

Measured: T/C

Nc1ccc(C(=O)/C=C/c2ccccn2)cc1
inactive: [1] 97 % of control | [2] 103 % of control | [3] 105 % of control | [4] 103 % of control

Nc1ncnc(N)c1NC(=O)c1ccc(Cl)cc1
inactive: endpoint: mean survival time, dose: 25.0 mg/kg/injection, schedule: Q01DX001 (ip), vehicle: saline with Tween-80 107 % of control | endpoint: mean survival time, dose: 50.0 mg/kg/injection, schedule: Q01DX001 (ip), vehicle: saline with Tween-80 104 % of control | endpoint: mean survival time, dose: 100.0 mg/kg/injection, schedule: Q01DX001 (ip), vehicle: saline with Tween-80 120 % of control

O=c1[nH]cnc2ncnn12
inactive: endpoint: mean survival time, dose: 100.0 mg/kg/injection, schedule: Q01DX001 (ip), vehicle: alkali diluted with saline 104 % of control | endpoint: mean survival time, dose: 200.0 mg/kg/injection, schedule: Q01DX001 (ip), vehicle: alkali diluted with saline 109 % of control | endpoint: mean survival time, dose: 400.0 mg/kg/injection, schedule: Q01DX001 (ip), vehicle: alkali diluted with saline 104 % of control

C[n+]1ccc2ccccc2c1CCCc1nccc2ccccc12
inactive: endpoint: mean survival time, dose: 6.25 mg/kg/injection, schedule: Q01DX009 (ip), vehicle: saline with Tween-80 111 % of control | endpoint: mean survival time, dose: 6.25 mg/kg/injection, schedule: Q04DX003 (ip), vehicle: saline 97 % of control | endpoint: mean survival time, dose: 12.5 mg/kg/injection, schedule: Q01DX009 (ip), vehicle: saline with Tween-80 117 % of control | endpoint: mean survival time, dose: 12.5 mg/kg/injection, schedule: Q04DX003 (ip), vehicle: saline 100 % of control | [5] 112 % of control | [6] 114 % of control

C=CCS(=O)(=O)CC=C
inactive: [7] 92 % of control | [8] 92 % of control | endpoint: mean survival time, dose: 400.0 mg/kg/injection, schedule: Q01DX009 (ip), vehicle: saline with Tween-80 93 % of control

CCCCOP(=O)(OCCCC)O/C(C)=C(\C)OP(=O)(OCC)OCC
inactive: endpoint: mean survival time, dose: 25.0 mg/kg/injection, schedule: Q04DX002 (ip), vehicle: saline 97 % of control and 102 % of control | [6] 102 % of control | endpoint: mean survival time, dose: 50.0 mg/kg/injection, schedule: Q04DX002 (ip), vehicle: saline 95 % of control and 97 % of control | endpoint: mean survival time, dose: 50.0 mg/kg/injection, schedule: Q04DX003 (ip), vehicle: saline 108 % of control | [9] 108 % of control | endpoint: mean survival time, dose: 200.0 mg/kg/injection, schedule: Q04DX002 (ip), vehicle: saline 97 % of control

C/C=C\C#N
inactive: [10] 106 % of control | [9] 103 % of control | [11] 108 % of control | [12] 113 % of control

CCN(Cc1ccccc1)c1nn[nH]n1
inactive: endpoint: mean survival time, dose: 100.0 mg/kg/injection, schedule: Q01DX001 (ip), vehicle: saline 98 % of control | endpoint: mean survival time, dose: 200.0 mg/kg/injection, schedule: Q01DX001 (ip), vehicle: saline 102 % of control | endpoint: mean survival time, dose: 400.0 mg/kg/injection, schedule: Q01DX001 (ip), vehicle: saline 102 % of control

CC(=O)Nc1ccc(/C=N/Nc2c([N+](=O)[O-])cc(C(F)(F)F)cc2[N+](=O)[O-])cc1
inactive: [7] 100 % of control | [8] 96 % of control

O=C(NCCCCCCNC(=O)c1ccccc1)c1ccccc1
inactive: [1] 100 % of control | [2] 103 % of control | [3] 97 % of control | [4] 97 % of control

c1ccc(N=Nc2cccnn2)cc1
inactive: endpoint: mean survival time, dose: 50.0 mg/kg/injection, schedule: Q04DX002 (ip), vehicle: saline with Tween-80 97 % of control | [13] 105 % of control | [14] 94 % of control

CCOC(CNC(=O)CC(C)=O)OCC
inactive: [10] 96 % of control | [9] 104 % of control | [11] 104 % of control | [12] 108 % of control | endpoint: mean survival time, dose: 400.0 mg/kg/injection, schedule: Q01DX009 (ip), vehicle: saline 98 % of control | [15] 103 % of control

NC(N)=Nc1ccc(C(=O)Oc2ccc([N+](=O)[O-])cc2)cc1
inactive: [16] 108 % of control | [17] 94 % of control | [18] 89 % of control

CC(=O)OCC(O)C(O)C(O)C(O)CO (stereo unspecified)
inactive: [16] 91 % of control | [17] 94 % of control | [18] 91 % of control

CCC(=O)c1ccc(OC)cc1
inactive: [13] 91 % of control | [14] 91 % of control | endpoint: mean survival time, dose: 400.0 mg/kg/injection, schedule: Q04DX002 (ip), vehicle: saline with Tween-80 91 % of control

C#CC(C)(C)N1CCCCC1
inactive: endpoint: mean survival time, dose: 25.0 mg/kg/injection, schedule: Q04DX003 (ip), vehicle: Klucel (hydroxypropylcellulose) (HPC) 110 % of control | endpoint: mean survival time, dose: 50.0 mg/kg/injection, schedule: Q04DX003 (ip), vehicle: Klucel (hydroxypropylcellulose) (HPC) 106 % of control

[Se]c1ncnc2nc[nH]c12
inactive: endpoint: mean survival time, dose: 25.0 mg/kg/injection, schedule: Q01DX001 (ip), vehicle: carboxymethylcellulose (CMC) 103 % of control | [1] 93 % of control | [2] 121 % of control

CC1=CC(C)(C)SC(=S)N1
inactive: endpoint: mean survival time, dose: 75.0 mg/kg/injection, schedule: Q01DX009 (ip), vehicle: Klucel (hydroxypropylcellulose) (HPC) 98 % of control | [9] 111 % of control | endpoint: mean survival time, dose: 150.0 mg/kg/injection, schedule: Q01DX009 (ip), vehicle: Klucel (hydroxypropylcellulose) (HPC) 104 % of control | [12] 104 % of control | endpoint: mean survival time, dose: 300.0 mg/kg/injection, schedule: Q01DX009 (ip), vehicle: Klucel (hydroxypropylcellulose) (HPC) 108 % of control | [15] 96 % of control

CCN(CC)CCN1C(=O)CN=C(c2ccccn2)c2cc(Cl)ccc21
inactive: endpoint: mean survival time, dose: 50.0 mg/kg/injection, schedule: Q01DX009 (ip), vehicle: saline 101 % of control | [10] 104 % of control | [16] 97 % of control | [11] 112 % of control | [17] 92 % of control

CN=C(NC#N)NCCSCc1nc[nH]c1C
inactive: endpoint: median survival time, dose: 12.0 mg/kg/injection, schedule: Q01DX009 (ip), vehicle: Klucel (hydroxypropylcellulose) (HPC) 100 % of control | endpoint: median survival time, dose: 25.0 mg/kg/injection, schedule: Q01DX009 (ip), vehicle: Klucel (hydroxypropylcellulose) (HPC) 101 % of control | endpoint: median survival time, dose: 50.0 mg/kg/injection, schedule: Q01DX009 (ip), vehicle: Klucel (hydroxypropylcellulose) (HPC) 106 % of control | endpoint: median survival time, dose: 100.0 mg/kg/injection, schedule: Q01DX009 (ip), vehicle: Klucel (hydroxypropylcellulose) (HPC) 106 % of control | endpoint: median survival time, dose: 200.0 mg/kg/injection, schedule: Q01DX009 (ip), vehicle: Klucel (hydroxypropylcellulose) (HPC) 108 % of control | endpoint: median survival time, dose: 400.0 mg/kg/injection, schedule: Q01DX009 (ip), vehicle: Klucel (hydroxypropylcellulose) (HPC) 104 % of control

CCOC(=O)c1cc(=O)c2cc(S(=O)(=O)F)ccc2[nH]1
inactive: endpoint: mean survival time, dose: 100.0 mg/kg/injection, schedule: Q01DX009 (ip), vehicle: Klucel (hydroxypropylcellulose) (HPC) 95 % of control | endpoint: mean survival time, dose: 200.0 mg/kg/injection, schedule: Q01DX009 (ip), vehicle: Klucel (hydroxypropylcellulose) (HPC) 97 % of control | endpoint: mean survival time, dose: 400.0 mg/kg/injection, schedule: Q01DX009 (ip), vehicle: Klucel (hydroxypropylcellulose) (HPC) 97 % of control

O=C(COc1ccccc1)N/N=C/c1cccc([N+](=O)[O-])c1
inactive: [5] 92 % of control | endpoint: mean survival time, dose: 50.0 mg/kg/injection, schedule: Q01DX009 (ip), vehicle: saline with Tween-80 86 % of control | [7] 86 % of control

CNc1nc(Cl)ncc1C
inactive: endpoint: mean survival time, dose: 0.2 mg/kg/injection, schedule: Q01DX Z (ip), vehicle: methylcellulose (MC) 90 % of control | endpoint: mean survival time, dose: 0.5 mg/kg/injection, schedule: Q01DX Z (ip), vehicle: methylcellulose (MC) 89 % of control
